Reference: patent US8101768B2, “Cyclic amine compound and pest control agent” (Nippon Soda Co., Ltd., priority 2004, dated 2012)

Experiments:
[1] = test system: organophosphorous agent resistant two-spotted spider mites; experiment: Effect on Two-spotted Spider Mite (spray on kidney bean leaves); type: in vivo; details: 125 ppm, water dispersible powder of Formulation Example 1 sprayed, 17 female adults, 25° C., 65% humidity, 3 days
Summary of the method: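 Mortality of adult females counted after 3 days at 25 °C and 65% humidity, following a 125 ppm spray of wettable-powder dilution onto infested 7–10-day-old bean seedlings (17 mites per leaf). Two replicates.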

[2] = test system: acaricide resistant citrus red mites; experiment: Effect on Citrus Red Mite (spray on mandarin orange leaves); type: in vivo; details: 31 ppm, emulsifiable concentrate of Formulation Example 2 sprayed, 10 female adults, 25° C., 65% humidity
Method: Effect on Citrus Red Mite
10 female adults of acaricide resistant citrus red mites were inoculated onto leaves of a mandarin orange placed on dishes, onto which each of liquid agents, diluted with water so as to adjust the respective concentration of the chemical compounds to 31 ppm according to the formulation of the emulsifiable concentrate shown in the aforementioned Formulation Example 2, was sprayed by using a rotating sparge tower. After they were left in a thermostatic chamber at 25° C. in 65% humidity for 3 days, and were then removed from the dishes, eggs laid for 3 days were investigated whether they could grow to adults or not on the eleventh day. As the results, the following chemical compounds killed 100% of the adults. 1-13, 1-15, 1-22, 1-27, 1-45, 1-54, 1-59, 1-63, 1-66, 1-69, 1-71, 1-72, 1-75, 1-80, 1-88, 1-89, 1-92, 1-93, 1-94, 1-97, 1-98, 1-100, 1-102, 1-105, 1-108, 1-133, 1-136, 1-142, 1-153, 1-181, 1-183, 1-186, 1-187, 1-188, 1-189, 1-190, 1-191,

CCCOc1cc(C(F)(F)F)ccc1OC1CCN(c2ccc(C)cn2)CC1 [1-94]
rate of killed adults [1]: 100% | killed ... of the adults (eggs laid for 3 days investigated whether they could grow to adults on the eleventh day) [2]: 100%

CCCC(O)c1cc(C(F)(F)F)ccc1OC1C2CCC1CN(c1ccc(C(F)(F)F)cn1)C2 (centres unmarked) [5-227]
rate of killed adults [1]: 100% | killed ... of the adults (eggs laid for 3 days investigated whether they could grow to adults on the eleventh day) [2]: 100%

CCOCc1cc(C(F)(F)F)ccc1OC1C2CCC1CN(c1ccc(C(F)(F)F)cn1)C2 (centres unmarked) [5-220]
rate of killed adults [1]: 100% | killed ... of the adults (eggs laid for 3 days investigated whether they could grow to adults on the eleventh day) [2]: 100%

CC=CCOc1cc(C(F)(F)F)ccc1OC1C2CCC1CN(c1ccc(C(F)(F)F)cn1)C2 (mixture of isomers) [5-175]
rate of killed adults [1]: 100% | killed ... of the adults (eggs laid for 3 days investigated whether they could grow to adults on the eleventh day) [2]: 100%

CCCOc1cc(C(F)(F)F)ccc1OC1CCN(c2ccc(C(F)(F)F)cn2)CC1CCC (centres unmarked) [1-191]
rate of killed adults [1]: 100% | killed ... of the adults (eggs laid for 3 days investigated whether they could grow to adults on the eleventh day) [2]: 100%

CCCNc1cc(C(F)(F)F)ccc1OC1C2CCC1CN(c1ccc(C(F)(F)F)cn1)C2 (centres unmarked) [5-190]
rate of killed adults [1]: 100% | killed ... of the adults (eggs laid for 3 days investigated whether they could grow to adults on the eleventh day) [2]: 100%

CC(C)COc1cc(C(F)(F)F)ccc1OC1CCN(c2ccc(C(F)(F)F)cn2)CC1 [1-102]
rate of killed adults [1]: 100% | killed ... of the adults (eggs laid for 3 days investigated whether they could grow to adults on the eleventh day) [2]: 100%

CCOC(=O)c1cc(C(F)(F)F)ccc1OC1C2CCC1CN(c1ccc(C(F)(F)F)cn1)C2 (centres unmarked) [5-233]
rate of killed adults [1]: 100% | killed ... of the adults (eggs laid for 3 days investigated whether they could grow to adults on the eleventh day) [2]: 100%

CCS(=O)(=O)Oc1cc(C(F)(F)F)ccc1OC1C2CCC1CN(c1ccc(C(F)(F)F)cn1)C2 (centres unmarked) [5-162]
rate of killed adults [1]: 100% | killed ... of the adults (eggs laid for 3 days investigated whether they could grow to adults on the eleventh day) [2]: 100%

COC(C)OCc1cc(C(F)(F)F)ccc1OC1CCN(c2ccc(C(F)(F)F)cn2)CC1C (centres unmarked) [1-188]
rate of killed adults [1]: 100% | killed ... of the adults (eggs laid for 3 days investigated whether they could grow to adults on the eleventh day) [2]: 100%

CCOCc1cc(C(F)(F)F)ccc1OC1CCN(c2ccc(C(F)(F)F)cn2)CC1 [1-66]
rate of killed adults [1]: 100% | killed ... of the adults (eggs laid for 3 days investigated whether they could grow to adults on the eleventh day) [2]: 100%

Cc1noc(-c2cc(C(F)(F)F)ccc2O[C@@H]2[C@@H]3CC[C@H]2CN(c2ccc(C(F)(F)F)cn2)C3)n1 [5-256]
rate of killed adults [1]: 100% | killed ... of the adults (eggs laid for 3 days investigated whether they could grow to adults on the eleventh day) [2]: 100%

C#CCOc1cc(C(F)(F)F)ccc1OC1C2CCC1CN(c1ccc(C(F)(F)F)cn1)C2 (centres unmarked) [5-177]
rate of killed adults [1]: 100% | killed ... of the adults (eggs laid for 3 days investigated whether they could grow to adults on the eleventh day) [2]: 100%

CCCOc1cc(C(F)(F)F)ccc1OC1CCN(c2ccc(C(F)(F)F)cn2)CC1CC (centres unmarked) [1-186]
rate of killed adults [1]: 100% | killed ... of the adults (eggs laid for 3 days investigated whether they could grow to adults on the eleventh day) [2]: 100%

CCCOc1cc(C(F)(F)F)ccc1OC1CCN(c2ccc(C(F)(F)F)cn2)CC1 [1-92]
rate of killed adults [1]: 100% | killed ... of the adults (eggs laid for 3 days investigated whether they could grow to adults on the eleventh day) [2]: 100%

CC(C)COc1cc(C(F)(F)F)ccc1O[C@@H]1[C@@H]2CC[C@H]1CN(c1ccc(C(F)(F)F)cn1)C2 [5-105]
rate of killed adults [1]: 100% | killed ... of the adults (eggs laid for 3 days investigated whether they could grow to adults on the eleventh day) [2]: 100%

FC(F)c1ccc(O[C@@H]2[C@@H]3CC[C@H]2CN(c2ccc(C(F)(F)F)cn2)C3)c(OCC2CC2)c1 [5-118]
rate of killed adults [1]: 100% | killed ... of the adults (eggs laid for 3 days investigated whether they could grow to adults on the eleventh day) [2]: 100%

CC(C)OCc1cc(C(F)(F)F)ccc1OC1C2CCC1CN(c1ccc(C(F)(F)F)cn1)C2 (centres unmarked) [5-225]
rate of killed adults [1]: 100% | killed ... of the adults (eggs laid for 3 days investigated whether they could grow to adults on the eleventh day) [2]: 100%

FC(F)(F)c1ccc(N2CCC(Oc3cccc(C(F)(F)F)c3)CC2)nc1 [1-76]
rate of killed adults [1]: 100%

FC(F)(F)c1ccc(N2C[C@H]3CC[C@@H](C2)[C@@H]3Oc2ccc(C(F)(F)F)cc2OC2CC2(Cl)Cl)nc1 (some centres unmarked) [5-104]
rate of killed adults [1]: 100%

CC(O)COc1cc(C(F)(F)F)ccc1OC1CC2CCC(C1)N2c1ccc(C(F)(F)F)cn1 (centres unmarked) [2-173]
rate of killed adults [1]: 100%

FC(F)(F)c1ccc(N2C3CCC2CC(Oc2ccc(C(F)(F)F)cc2OCC2CC2)C3)nc1 (centres unmarked) [2-105]
rate of killed adults [1]: 100%

FC(F)(F)c1ccc(OC2CCN(c3ccc(C(F)(F)F)cn3)C2)cc1 (centres unmarked) [8-63, 3-[4-(trifluoromethyl)phenoxy]-1-[5-(trifluoromethyl)-2-pyridy]pyrrolidine]
rate of killed adults [1]: 100%

CC=Cc1cc(C(F)(F)F)ccc1OC1CCN(c2ccc(C(F)(F)F)cn2)CC1 [1-73]
rate of killed adults [1]: 100%

Cc1noc(-c2cc(C(F)(F)F)ccc2OC2CC3CCC(C2)N3c2ccc(C(F)(F)F)cn2)n1 (centres unmarked) [2-200]
rate of killed adults [1]: 100%

CCCOc1cc(C(F)(F)F)ccc1O[C@@H]1[C@@H]2CC[C@H]1CN(c1ccc(C#N)cn1)C2 [5-96]
rate of killed adults [1]: 100%

CCC=Cc1cc(C(F)(F)F)ccc1OC1CC2CCC(C1)N2c1ccc(C(F)(F)F)cn1 (stereo not drawn) [2-186, 3α-[2-(buten-1-yl)-4-(trifluoromethyl)phenoxy]-8-[5-(trifluoromethyl)-2-pyridyl]-8-azabicyclo[3.2.1]octane]
rate of killed adults [1]: 100%

COCCOc1cc(C(F)(F)F)ccc1OC1CC2CCC(C1)N2c1ccc(C(F)(F)F)cn1 (centres unmarked) [2-112]
rate of killed adults [1]: 100%

C=CC(C)OC(=O)c1cc(C(F)(F)F)ccc1OC1CC2CCC(C1)[N+]2([O-])c1ccc(C(F)(F)F)cn1 (centres unmarked) [2-247]
rate of killed adults [1]: 100%

Cc1cc(Cl)ccc1OC1CCN(c2ccc(C(F)(F)F)cn2)CC1 [1-49]
rate of killed adults [1]: 100%

C#CCOc1cc(C(F)(F)F)ccc1OC1CC2CCC(C1)N2c1ccc(C(F)(F)F)cn1 (centres unmarked) [2-143]
rate of killed adults [1]: 100%

FC(F)(F)c1ccc(N2CC3CCC(C2)C3Oc2ccc(C(F)(F)F)cc2C2CC=CO2)nc1 (centres unmarked) [5-235]
rate of killed adults [1]: 100%

FC(F)(F)c1ccc(N2CC3CCC(C2)C3Oc2ccc(C(F)(F)F)cc2COC2CCOC2)nc1 (centres unmarked) [5-231]
rate of killed adults [1]: 100%

CCCS(=O)(=O)Oc1cc(C(F)(F)F)ccc1OC1C2CCC1CN(c1ccc(C(F)(F)F)cn1)C2 (centres unmarked) [5-163]
rate of killed adults [1]: 100%

FC(F)(F)c1ccc(N2CCC(Oc3c(Cl)cc(C(F)(F)F)cc3Cl)CC2)nc1 [1-16]
rate of killed adults [1]: 100%

C=CCCOc1cc(C(F)(F)F)ccc1OC1C2CCC1CN(c1ccc(C(F)(F)F)cn1)C2 (centres unmarked) [5-176]
rate of killed adults [1]: 100%

COCOCc1cc(O[C@@H]2[C@@H]3CC[C@H]2CN(c2ccc(C(F)(F)F)cn2)C3)ccc1C(F)(F)F [5-70]
rate of killed adults [1]: 100%

C#CCON=Cc1cc(C(F)(F)F)ccc1OC1CC2CCC(C1)N2c1ccc(C(F)(F)F)cn1 (centres unmarked) [2-221]
rate of killed adults [1]: 100%

CC(C)(C)COc1cc(C(F)(F)F)ccc1OC1CC2CCC(C1)N2c1ccc(C(F)(F)F)cn1 (centres unmarked) [2-111]
rate of killed adults [1]: 100%

CCCOc1cc(C(F)(F)F)ccc1OC1CC2CCC(C1)[N+]2([O-])c1ccc(C(F)(F)F)cn1 (stereo not drawn) [2-84, 3α-[2-propoxy-4-(trifluoromethyl)phenoxy]-8-oxy-8-[5-(trifluoromethyl)-2-pyridyl]-8-azabicyclo[3.2.1]octane]
rate of killed adults [1]: 100%

COCC(C)Oc1cc(C(F)(F)F)ccc1OC1CC2CCC(C1)N2c1ccc(C(F)(F)F)cn1 (centres unmarked) [2-178]
rate of killed adults [1]: 100%

FC(F)(F)c1ccc(N2CC3CCC(C2)C3Oc2ccc(C(F)(F)F)cc2OCc2cccs2)nc1 (centres unmarked) [5-209]
rate of killed adults [1]: 100%

CC=CCOc1cc(C(F)(F)F)ccc1OC1CC2CCC(C1)N2c1ccc(C(F)(F)F)cn1 (mixture of isomers) [2-145]
rate of killed adults [1]: 100%

CC(CCl)OC(=O)c1cc(C(F)(F)F)ccc1OC1CC2CCC(C1)N2c1ccc(C(F)(F)F)cn1 (centres unmarked) [2-233]
rate of killed adults [1]: 100%

CCCOc1cc(C(F)(F)F)cc(Cl)c1OC1CC2CCC(C1)N2c1ccc(C(F)(F)F)cn1 (centres unmarked) [2-95]
rate of killed adults [1]: 100%

CCC(C)OC(=O)c1cc(C(F)(F)F)ccc1OC1CC2CCC(C1)N2c1ccc(C(F)(F)F)cn1 (centres unmarked) [2-208]
rate of killed adults [1]: 100%

OCCOc1cc(C(F)(F)F)ccc1OC1CC2CCC(C1)N2c1ccc(C(F)(F)F)cn1 (centres unmarked) [2-115]
rate of killed adults [1]: 100%

CCCC(O)c1cc(C(F)(F)F)ccc1OC1CC2CCC(C1)N2c1ccc(C(F)(F)F)cn1 (stereo not drawn) [2-184, 3α-[2-(1-hydroxybutyl)-4-(trifluoromethyl)phenoxy]-8-[5-(trifluoromethyl)-2-pyridyl]-8-azabicyclo[3.2.1]octane]
rate of killed adults [1]: 100%

CC(C)(C)C(=O)Oc1cc(C(F)(F)F)ccc1OC1C2CCC1CN(c1ccc(C(F)(F)F)cn1)C2 (centres unmarked) [5-200]
rate of killed adults [1]: 100%

CCOC(C)COc1cc(C(F)(F)F)ccc1OC1CC2CCC(C1)N2c1ccc(C(F)(F)F)cn1 (centres unmarked) [2-175]
rate of killed adults [1]: 100%

CCNc1cc(C(F)(F)F)ccc1OC1CCN(c2ccc(C(F)(F)F)cn2)CC1 [1-172]
rate of killed adults [1]: 100%

FC(F)(F)c1ccc(N2CC3CCC(C2)C3Oc2ccc(C(F)(F)F)cc2OCC2CCOC2)nc1 (centres unmarked) [5-205]
rate of killed adults [1]: 100%

CC(C)OC(=O)c1cc(C(F)(F)F)ccc1OC1CC2CCC(C1)N2c1ccc(C(F)(F)F)cn1 (centres unmarked) [2-196]
rate of killed adults [1]: 100%
